This is an account of results in PubChem BioAssay AID1259408 (Genetic Toxicology Data Bank (GENE-TOX), 2018).

Activity calls are given as the source filed them. The rule behind the calls is not given here.

The data set concerns GENE-TOX genotoxicity assays, various organisms and cells. Kind of data set: GENE-TOX mutagenicity studies. To be noted: for call: Assay Type: In vivo carcinogenicity studies. From the text: GENE-TOX provides genetic toxicology (mutagenicity) test data from expert peer review of open scientific literature for more than 3,000 chemicals from the United States Environmental Protection Agency (EPA). GENE-TOX was established to select assay systems for evaluation, review data in the scientific literature, and recommend proper testing protocols and evaluation procedures for these systems.
GENE-TOX covers the years 1991 - 1998. It is no longer updated.
This is an archive assay for GENE-TOX mutagenicity studies.

Setting [1] is: Species/Cell Type: Bacillus subtilis (H17 vs M45), Assay Type: Rec-assay, spot test, DNA effects (bacterial DNA repair), Assay Code: REWT, Evaluation Type: Evaluation A (Pre-1980).
The mark [2] stands for this setting: Species/Cell Type: Drosophila melanogaster, Assay Type: Sex-linked recessive lethal gene mutation, Assay Code: SRL-, Evaluation Type: Evaluation A (Pre-1980).
Setting [3] is: Species/Cell Type: Escherichia coli WP2 UVRA, Assay Type: Tryptophan reverse gene mutation, Assay Code: WPU-*, Activation: With metabolic activation, Evaluation Type: Evaluation A (Pre-1980).
[4] abbreviates: Species/Cell Type: Escherichia coli polA (W3119 vs P3478), Assay Type: Rec-assay, DNA effects (bacterial DNA repair), Assay Code: RE1T, Evaluation Type: Evaluation A (Pre-1980).
Where [5] appears, read: Species/Cell Type: Human diploid fibroblasts, Assay Type: Unscheduled DNA synthesis (UDS) in vitro, DNA effects, Assay Code: UDH-, Evaluation Type: Evaluation A (Pre-1980).
The mark [6] stands for this setting: Species/Cell Type: Saccharomyces cerevisiae, Assay Type: Mitotic recombination or gene conversion, Assay Code: YEH-, Evaluation Type: Evaluation A (Pre-1980).
Where [7] appears, read: Species/Cell Type: Nonhuman, Assay Type: Sister-chromatid exchange (SCE) in vitro, Assay Code: SC2+D, Dose Response: With dose response, Evaluation Type: Evaluation B (Post-1980).
Setting [8] is: Species/Cell Type: Salmonella typhimurium (one or more of the five standard strains: TA98, TA100, TA1535, TA1537, and TA1538), Assay Type: Histidine reverse gene mutation, Ames assay, Assay Code: SAL+*, Activation: With metabolic activation, Evaluation Type: Evaluation A (Pre-1980).
Setting [9] is: Species/Cell Type: Drosophila melanogaster, Assay Type: Sex-linked recessive lethal gene mutation, Assay Code: SRL+, Evaluation Type: Evaluation A (Pre-1980).
Setting [10] is: Species/Cell Type: Saccharomyces cerevisiae, Assay Type: Mitotic recombination or gene conversion, Assay Code: YEC+, Evaluation Type: Evaluation A (Pre-1980).
The mark [11] stands for this setting: Species/Cell Type: Saccharomyces cerevisiae, Assay Type: Reverse gene mutation, Assay Code: YER+, Evaluation Type: Evaluation A (Pre-1980).
Where [12] appears, read: Species/Cell Type: Nonhuman, Assay Type: Sister-chromatid exchange (SCE) in vitro, Assay Code: SC2T, Evaluation Type: Evaluation B (Post-1980).
Where [13] appears, read: Species/Cell Type: Salmonella typhimurium (one or more of the five standard strains: TA98, TA100, TA1535, TA1537, and TA1538), Assay Type: Histidine reverse gene mutation, Ames assay, Assay Code: SAL+, Evaluation Type: Evaluation A (Pre-1980).
[14] abbreviates: Species/Cell Type: Salmonella typhimurium (one or more of the five standard strains: TA98, TA100, TA1535, TA1537, and TA1538), Assay Type: Histidine reverse gene mutation, Ames assay, Assay Code: SAL-, Evaluation Type: Evaluation A (Pre-1980).

For the compound `CNC(=O)O/N=C(\C)SC`, the mutagenic call under setting [1] is given as “no conclusion”; the mutagenic call under setting [2] is “inactive; negative”; the mutagenic call under setting [3] is “inactive; negative”; the mutagenic call under setting [4] is recorded as “no conclusion”; the mutagenic call under setting [5] was “inactive; negative”; the mutagenic call under setting [6] is “inactive; negative”. The mutagenic call (Species/Cell Type: Salmonella typhimurium (one or more of the five standard strains: TA98, TA100, TA1535, TA1537, and TA1538), Assay Type: Histidine reverse gene mutation, Ames assay, Assay Code: SALT, Evaluation Type: Evaluation A (Pre-1980)) is listed as “no conclusion”.

Take `Cc1cc2ccccc2c2cc3ccccc3cc12`: the mutagenic call under setting [7] is “active; positive”; the mutagenic call (Species/Cell Type: Nonhuman, Assay Type: Sister-chromatid exchange (SCE) in vitro, Assay Code: SC2-, Evaluation Type: Evaluation B (Post-1980)) was “inactive; negative”; the mutagenic call under setting [8] was “active; positive”.

For `CS(=O)(=O)OC[C@@H](O)[C@@H](O)[C@H](O)[C@H](O)COS(C)(=O)=O`, the mutagenic call under setting [9] was “active; positive”.

For `OCC1=CCN2CC[C@H](O)[C@@H]12`, the mutagenic call (Species/Cell Type: Drosophila melanogaster, Assay Type: Sex-linked recessive lethal gene mutation, Assay Code: SRLT, Evaluation Type: Evaluation A (Pre-1980)) was “no conclusion”.

With `CC(=O)ON(C(C)=O)c1ccc(/C=C/c2ccccc2)cc1`, the mutagenic call reads like this: under setting [10], “active; positive”; (Species/Cell Type: Saccharomyces cerevisiae, Assay Type: Mitotic recombination or gene conversion, Assay Code: YEH+, Evaluation Type: Evaluation A (Pre-1980)) “active; positive”; under setting [11], “active; positive”.

Consider `ONc1ccccc1`, for which the mutagenic call (Species/Cell Type: Human, Assay Type: Sister-chromatid exchange (SCE) in vitro, Assay Code: SC1+, Evaluation Type: Evaluation B (Post-1980)) is “active; positive”.

Regarding `C/C=C/C#CC#CC#C/C=C/C(O)CO` (stereo not drawn), under setting [12], the mutagenic call is reported as “no conclusion”.

Consider `O=C1CN(/N=C/c2ccc([N+](=O)[O-])o2)C(=O)N1`, for which the mutagenic call is “active; positive” (Species/Cell Type: Escherichia coli WP2, Assay Type: Tryptophan reverse gene mutation, Assay Code: WP2+, Evaluation Type: Evaluation A (Pre-1980)); “active; positive” (Species/Cell Type: Escherichia coli WP2 UVRA, Assay Type: Tryptophan reverse gene mutation, Assay Code: WPU+D, Dose Response: With dose response, Evaluation Type: Evaluation A (Pre-1980)); “inactive; negative” under setting [5]; “no conclusion” (Species/Cell Type: Human, Assay Type: Sister-chromatid exchange (SCE) in vitro, Assay Code: SC1T, Evaluation Type: Evaluation B (Post-1980)); “no conclusion” (Species/Cell Type: Human, Sex: Male, Assay Type: Sperm morphology, Assay Code: SPHT, Evaluation Type: Evaluation A (Pre-1980)); “active; positive” (Species/Cell Type: Mammalian polychromatic erythrocytes, Assay Type: Micronucleus test, chromosome aberrations, Assay Code: MNT+, Evaluation Type: Evaluation A (Pre-1980)). For the same compound, the mutagenic call reads like this: (Species/Cell Type: Mouse, Sex: Male, Assay Type: Sperm morphology, Assay Code: SPI-, Evaluation Type: Evaluation A (Pre-1980)) “inactive; negative”; under setting [7], “active; positive”; (Species/Cell Type: Nonhuman, Assay Type: Sister-chromatid exchange (SCE) in vivo, Assay Code: SC3+, Evaluation Type: Evaluation B (Post-1980)) “active; positive”; (Species/Cell Type: Rodents, Sex: Male, Assay Type: Dominant lethal test, Assay Code: DLT-, Evaluation Type: Evaluation A (Pre-1980)) “inactive; negative”; (Species/Cell Type: Saccharomyces cerevisiae, Assay Type: Forward and reverse gene mutation, mitotic recombination and gene conversion, host-mediated assay, Assay Code: HME+, Evaluation Type: Evaluation A (Pre-1980)) “active; positive”; (Species/Cell Type: Saccharomyces cerevisiae, Assay Type: Mitotic recombination or gene conversion, Assay Code: YEC+*, Activation: With metabolic activation, Evaluation Type: Evaluation A (Pre-1980)) “active; positive”. Further, the mutagenic call runs as follows: under setting [13], “active; positive”; (Species/Cell Type: Salmonella typhimurium and Saccharomyces cerevisiae, Assay Type: Forward and reverse gene mutation, mitotic recombination and gene conversion, DNA effects, body fluid assay, Assay Code: BFG+, Evaluation Type: Evaluation A (Pre-1980)) “active; positive”. Further, under “Species/Cell Type: Nonhuman, Assay Code: CCGT, Evaluation Type: Evaluation A (Pre-1980)”, the call is given as “no conclusion”.

As for `Cc1cc(Cl)ccc1OCC(=O)O`, the mutagenic call was “inactive; negative” (Species/Cell Type: Drosophila melanogaster, Assay Type: Aneuploidy, sex chromosome gain, chromosome aberrations, Assay Code: DAG-M-F, Evaluation Type: Evaluation A (Pre-1980)); “inactive; negative” (Species/Cell Type: Drosophila melanogaster, Assay Type: Aneuploidy, whole sex chromosome loss, chromosome aberrations, Assay Code: DAC-M-F, Evaluation Type: Evaluation A (Pre-1980)); “active; positive” under setting [9]; “active; positive” under setting [11]; “inactive; negative” (Species/Cell Type: Salmonella typhimurium, Serratia marcesens, Assay Type: Forward and reverse gene mutation, host-mediated assay, Assay Code: HM2-, Evaluation Type: Evaluation A (Pre-1980)).

Consider `c1cc2cccc3c4cccc5cccc(c(c1)c23)c54`, for which the mutagenic call (Species/Cell Type: Chinese hamster lung (V79) cells, Assay Type: Forward gene mutation, host-mediated assay, Assay Code: HMG-, Evaluation Type: Evaluation A (Pre-1980)) was “inactive; negative” and the mutagenic call (Species/Cell Type: Nonhuman, Assay Type: Sister-chromatid exchange (SCE) in vivo, Assay Code: SC3-, Evaluation Type: Evaluation A (Pre-1980)) is “inactive; negative”.

`O=C(CCN1CCCCC1)c1ccc2c(c1)OCO2`: the mutagenic call (Species/Cell Type: Salmonella typhimurium, Assay Type: Forward and reverse gene mutation, host-mediated assay, Assay Code: HMA+, Evaluation Type: Evaluation A (Pre-1980)) was “active; positive”.

For the compound `N=C1C=CC(=C(c2ccc(N)cc2)c2ccc(N)cc2)C=C1`, the mutagenic call runs as follows: (Species/Cell Type: Escherichia coli polA (W3119 vs P3478), Assay Type: Rec-assay, DNA effects (bacterial DNA repair), Assay Code: RE1+, Evaluation Type: Evaluation A (Pre-1980)) “active; positive”; (Species/Cell Type: Fischer rat embryo (RLV/1706) cells, Assay Type: Cell transformation, viral enhanced, Assay Code: CTR+, Evaluation Type: Evaluation A (Pre-1980)) “active; positive”; (Species/Cell Type: Mouse (BALB/c-3T3) cells, Assay Type: Cell transformation, Assay Code: CTB+D, Dose Response: With dose response, Evaluation Type: Evaluation A (Pre-1980)) “active; positive”; under setting [6], “inactive; negative”; under setting [14], “inactive; negative”; (Species/Cell Type: Salmonella typhimurium, Assay Type: Forward and reverse gene mutation, host-mediated assay, Assay Code: HMA-, Evaluation Type: Evaluation A (Pre-1980)) “inactive; negative”. The mutagenic call (Species/Cell Type: Syrian hamster embryo (SHE) cells, Assay Type: Cell transformation, clonal assay, Assay Code: CTCT, Evaluation Type: Evaluation A (Pre-1980)) is “no conclusion”. For the same compound, where the note is “Species/Cell Type: Nonhuman, Assay Code: CCG+L, Evaluation Type: Evaluation A (Pre-1980)”, the call is “active; positive”.

As to `CS(=O)(=O)OCCNC(=O)N(CCCl)N=O`, the mutagenic call was “active; positive” under setting [9] and “active; positive” under setting [10].

As for `NCCCC[C@H](N)C(=O)O`, the mutagenic call (Species/Cell Type: Human, Sex: Male, Assay Type: Sperm morphology, Assay Code: SPH-, Evaluation Type: Evaluation A (Pre-1980)) is “inactive; negative”.

Consider `O=C(O)c1ccc2c([N+](=O)[O-])cccc2n1`, for which the mutagenic call under setting [13] was “active; positive”.

Consider `Cc1cc2c(c3ccc4ccccc4c13)CCCC2=O`, for which, under setting [8], the mutagenic call is “active; positive”.

As to `CCOP(=S)(OCC)Oc1ccc(S(C)=O)cc1` (stereo not drawn), the mutagenic call is, setting by setting: under setting [1], “no conclusion”; under setting [2], “inactive; negative”; under setting [3], “inactive; negative”; under setting [4], “no conclusion”; under setting [5], “inactive; negative”; under setting [12], “no conclusion”. In addition, the mutagenic call by setting is: under setting [6], “inactive; negative”; under setting [14], “inactive; negative”.

Turning to `[Cl][Sb]([Cl])([Cl])([Cl])[Cl]`, for the setting “Species/Cell Type: Bacillus subtilis (H17 vs M45), Assay Type: Rec-assay, spot test, DNA effects (bacterial DNA repair), Assay Code: REW+, Evaluation Type: Evaluation A (Pre-1980)”, the mutagenic call was “active; positive”.

For `Cc1cccc2cccnc12`, the mutagenic call under setting [8] is “active; positive”.
